In ChEMBL document CHEMBL5209575, “Membrane potential based assay for SLC1A1 using HEK-293 SLC1A1 OE cells” (2022) one finds EC50 data, which are given here for three compounds.

This assay addresses T1, Excitatory amino acid transporter 3 (Homo sapiens, UniProt P43005).
T1 sequence (P43005 whole entry): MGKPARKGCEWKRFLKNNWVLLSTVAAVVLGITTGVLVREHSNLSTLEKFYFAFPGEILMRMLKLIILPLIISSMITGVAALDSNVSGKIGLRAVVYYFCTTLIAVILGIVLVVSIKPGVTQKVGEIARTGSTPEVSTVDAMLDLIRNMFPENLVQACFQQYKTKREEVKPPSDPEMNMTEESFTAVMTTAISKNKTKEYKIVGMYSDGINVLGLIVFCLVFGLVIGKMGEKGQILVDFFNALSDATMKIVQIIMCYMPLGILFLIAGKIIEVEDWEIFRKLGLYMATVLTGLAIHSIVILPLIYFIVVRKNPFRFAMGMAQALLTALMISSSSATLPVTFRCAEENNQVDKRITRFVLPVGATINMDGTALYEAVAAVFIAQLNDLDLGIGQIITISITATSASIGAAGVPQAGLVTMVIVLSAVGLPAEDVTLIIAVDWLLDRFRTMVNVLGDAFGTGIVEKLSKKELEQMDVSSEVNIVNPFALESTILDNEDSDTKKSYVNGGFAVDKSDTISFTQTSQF
The experiment in a line: Substrate uptake by the Excitatory Amino Acid Transporter 3 (EAAT3, SLC1A1) as assessed by the fluorescent FLIPR membrane potential dye in HEK-293 JumpIN-SLC1A1 cells (PubChem AID: 1794812). The class given is functional, cell-based, HEK293.

On to `N[C@@H](CC(=O)O)C(=O)O` [ASPARTIC ACID], for which the EC50 (as a rule, the midpoint of the concentration-response curve) (hek293) is reported as “Substrate: The Commpound Is Eliciting A Specific Response, But A Broader Concentration Range Is Needed To Calculate A Correct Ec50”.

Turning to `N[C@@H](CS)C(=O)O` [CYSTEINE], the half-maximal effective concentration (EC50) (read-out: EC50) was determined as 161 µM. With `N[C@@H](CCC(=O)O)C(=O)O` [GLUTAMIC ACID], under “hek293”, the EC50 result was “Substrate: The Commpound Is Eliciting A Specific Response, But A Broader Concentration Range Is Needed To Calculate A Correct Ec50”.
